Source: patent publication US8765779B2, “Tricyclic derivatives and their pharmaceutical use and compositions” (Cephalon, Inc., priority 2009, dated 2014)

Molecular target: T1, human 5-HT6 receptor (Homo sapiens, UniProt P50406)
T1 construct: host or cells: CHO-K1 cells, stably transfected; membranes prepared in house
Assay: Human 5-HT6 Receptor Binding Assay ([3H]LSD displacement, scintillation beads)
Details: membranes of CHO-K1 cells with recombinant human 5-HT6, 4 nM [3H]LSD; Table 1, class symbols; read-out: h5-HT6 (Ki)
Description: Human 5-HT6 Receptor Binding Assay
Membranes were prepared from CHO—K1 cells stably transfected with the human 5-HT6 receptor (Euroscreen; ES-316-C). The cells were grown in Gibco Advanced DMEM-F12 (Cat#12634010) containing 2% dialyzed FBS (Hyclone Cat#SH30079.03). The cells were harvested in phosphate buffered saline (PBS) containing 0.1 mM EDTA and pelleted by centrifugation (1000×g), the supernatant was discarded and the pellets were stored at −80° C. prior to membrane preparation. Membranes were prepared as previously described (J Bio Chem. 1992, 267 (14) 9844-51). Briefly, frozen cell pellet was resuspended in a lysis buffer containing 5 mM Tris-HCl (pH 7.5), 5 mM EDTA and 1 complete EDTA-free protease inhibitor tablet (Roche Applied Science, Indianapolis, Ind.) per 50 mL buffer, and homogenized with a tissue homogenizer. The cell lysate was then centrifuged at 40,000×g for 30 min at 4° C. to collect the membranes. The membrane pellets were washed in membrane buffer (50 mM Tris-HCl (pH 7.5), 0.6 mM EDTA, 5 mM MgCl2, 1 complete EDTA-free protease inhibitor tablet per 50 mL buffer) using a tissue homogenizer. The membranes were centrifuged at 40,000×g for 30 min at 4° C. and the pellets were resuspended in membrane buffer containing 250 mM sucrose, and protein concentration was determined using the Coomassie Plus kit (Pierce Biotechnology, Rockford, Ill.).
Membranes prepared from cells expressing recombinant human 5-HT6 receptor (h5-HT6) were resuspended in assay buffer containing 50 mM Tris HCl, (pH7.4), 4 mM CaCl2, 10 μg/mL saponin, and 0.1% (w/v) ascorbic acid. Membranes were preincubated using 1.75 μg membrane protein and 0.25 mg FlashBlue scintillation beads (PerkinElmer catalogue #FB001) per well at 4° for 30 min. […] Test compounds or assay controls for total and non-specific binding were diluted in DMSO as 100× solutions and serially diluted by half log concentrations on a Perkin Elmer JANUS Automated Workstation. Serotonin (10 μM final concentration) was used to determine non-specific binding in the assay. Plates were read using the Microbeta Trilux 1450 LSC and luminescence counter. Data were analyzed by nonlinear […] using the dose-response equation (variable slope) to calculate IC50 in XLfit4 (ID Business Solutions Inc.): y=(Bottom+((Top−Bottom)/(1+((IC50/x)^Hill slope))))
Ki value was then calculated according to the Cheng-Prusoff method using the equation below (Cheng and Prusoff, 1973): Ki,app=IC50/(1+[radioligand]/Kd))

T1 sequence (P50406 whole entry): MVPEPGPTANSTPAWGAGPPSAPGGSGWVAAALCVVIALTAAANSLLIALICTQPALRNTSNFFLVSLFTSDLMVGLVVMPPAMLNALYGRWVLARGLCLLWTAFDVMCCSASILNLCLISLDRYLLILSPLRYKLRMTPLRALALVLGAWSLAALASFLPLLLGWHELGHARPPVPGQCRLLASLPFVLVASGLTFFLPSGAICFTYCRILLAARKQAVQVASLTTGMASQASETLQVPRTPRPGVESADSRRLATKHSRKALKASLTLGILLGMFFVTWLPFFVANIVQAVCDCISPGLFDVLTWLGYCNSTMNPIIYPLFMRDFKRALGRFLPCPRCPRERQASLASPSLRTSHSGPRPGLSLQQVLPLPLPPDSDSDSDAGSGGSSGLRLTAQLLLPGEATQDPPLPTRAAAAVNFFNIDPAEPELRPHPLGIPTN

Row | SMILES | Ki [nM]
1 | COc1cccc(S(=O)(=O)c2ccc3c(c2)OC2CNCCC32)c1 (stereo not drawn) [Example 118] | < 500
2 | Cc1ccc(S(=O)(=O)Oc2ccc3c(c2)OC2CNCCC32)cc1C (stereo not drawn) [Example 649] | < 500
3 | COc1ccc(OC)c(S(=O)(=O)Oc2ccc3c(c2)OC2CNCCC32)c1 (stereo not drawn) [Example 670] | < 500
4 | CC12CCNCC1Oc1ccc(OS(=O)(=O)Cc3ccccc3)cc12 (stereo not drawn) [Example 758, 4a-methyl-1,2,3,4,4a,9a-hexahydro[1]benzofuro[2,3-c]pyridin-6-yl phenylmethanesulfonate] | < 500
5 | CC(=O)N(C)CC1NCCc2c1oc1cc(S(=O)(=O)c3cccc(F)c3)ccc21 (racemic) [Example 537, N-({7-[(3-fluorophenyl)sulfonyl]-1,2,3,4-tetrahydro[1]benzofuro[2,3-c]pyridin-1-yl}methyl)-N-methylacetamide] | < 500
6 | COc1ccc(S(=O)(=O)c2ccc3oc4c(c3c2)CCNC4)cc1OC [Example 242] | > 1000
7 | Cc1c(OCC2CCOCC2)cccc1S(=O)(=O)c1ccc2c(c1)OC1CNCCC21 (stereo not drawn) [Example 582] | < 500
8 | COc1cc(OC)cc(S(=O)(=O)c2ccc3c(c2)OC2CNCCC32C)c1 (stereo not drawn) [Example 487] | < 500
9 | COc1ccc(S(=O)(=O)c2ccc3c(c2)C2CCNCC2O3)cc1 (stereo not drawn) [Example 336] | > 1000
10 | O=S(=O)(c1ccccc1)c1ccc2c3c(oc2c1)CN(CCO)CC3 [Example 592, 2-[7-(Phenylsulfonyl)-3,4-dihydro[1]benzofuro[2,3-c]pyridin-2(1H)-yl]ethanol] | < 500
11 | COc1cccc(S(=O)(=O)Oc2ccc3c(c2)C2(C)CCNCC2O3)c1 (stereo not drawn) [Example 761] | > 1000
12 | Cc1cc(C)cc(S(=O)(=O)Oc2ccc3c(c2)OC2CNCCC32)c1 (stereo not drawn) [Example 648] | < 500
13 | Cc1ccc(C)c(S(=O)(=O)Oc2ccc3c(c2)OC2CNCCC32)c1 (stereo not drawn) [Example 647] | < 500
14 | COc1ccc(S(=O)(=O)c2cccc3c2OC2CNCCC32)cc1 (stereo not drawn) [Example 187] | 500 to 1000
15 | CN(C)C(=O)CC1(C)NCCc2c1oc1cc(S(=O)(=O)c3cccc(F)c3)ccc21 (single isomer, unassigned) [Example 50, 2-{7-[(3-fluorophenyl)sulfonyl]-1-methyl-1,2,3,4-tetrahydro[1]benzofuro[2,3-c]pyridin-1-yl}-N,N-dimethylacetamide] | < 500
16 | O=S(=O)(c1cc(F)cc(OCC2CCOCC2)c1)c1ccc2c(c1)OC1CNCCC21 (stereo not drawn) [Example 591] | < 500
17 | CC1(C)NCCc2c1oc1cc(S(=O)(=O)c3cccc(Cl)c3)ccc21 [Example 17, 7-[(3-chlorophenyl)sulfonyl]-1,1-dimethyl-1,2,3,4-tetrahydro[1]benzofuro[2,3-c]pyridine] | < 500
18 | O=S(=O)(c1cccc(C(F)(F)F)c1)c1ccc2c(c1)OC1CNCCC21 (stereo not drawn) [Example 126] | < 500
19 | O=S(=O)(NCc1ccc(Cl)cc1)c1ccc2c(c1)C1CCNCC1O2 (stereo not drawn) [Example 854] | > 1000

Row | SMILES | Ki [nM]
20 | O=S(=O)(Oc1ccc2c(c1)C1CCNCC1O2)c1ccc(C(F)(F)F)cc1 (stereo not drawn) [Example 735] | > 1000
21 | COc1ccccc1S(=O)(=O)c1ccc2c(c1)OC1CNCCC21C (racemic) [Example 3, 7-[(2-methoxyphenyl)sulfonyl]-4a-methyl-1,2,3,4,4a,9a-hexahydro[1]benzofuro[2,3-c]pyridine] | < 500
22 | [O-][S+](c1ccc2oc3c(c2c1)CCNC3)c1ccccc1-c1ccccc1 (stereo not drawn) [Example 279] | < 500
23 | CCN1CCC2(C)c3cc(OS(=O)(=O)Cc4ccccc4)ccc3OC2C1 (stereo not drawn) [Example 810, 2-Ethyl-4a-methyl-1,2,3,4,4a,9a-hexahydro[1]benzofuro[2,3-c]pyridin-6-yl phenylmethanesulfonate] | > 1000
24 | [O-][S+](c1ccc2c3c(oc2c1)CNCC3)c1ccccc1Cl (stereo not drawn) [Example 229] | < 500
25 | CC12CCNCC1Oc1ccc(OS(=O)(=O)c3ccc(Cl)cc3)cc12 (stereo not drawn) [Example 757] | > 1000
26 | O=S(=O)(c1ccc2c3c(oc2c1)CNCC3)c1cccc2c1OCCO2 [Example 467] | < 500
27 | O=S(=O)(c1ccc2c3c(oc2c1)CNCC3)c1cccnc1Cl [Example 436] | < 500
28 | COc1ccc(S(=O)(=O)Oc2ccc3c(c2)C2(C)CCNCC2O3)cc1 (stereo not drawn) [Example 760] | > 1000
29 | CC(=O)Nc1ccc(S(=O)(=O)Oc2ccc3c(c2)OC2CNCCC32)cc1 (stereo not drawn) [Example 667] | > 1000
30 | O=S(=O)(c1ccc2c(c1)C1CCNCC1O2)N1CCc2ccccc2C1 (stereo not drawn) [Example 856] | < 500
31 | CC(C)Oc1cccc([S+]([O-])c2ccc3c4c(oc3c2)CNCC4)c1 (stereo not drawn) [Example 216] | < 500
32 | O=S(=O)(Oc1ccc2c(c1)OC1CNCCC21)c1ccc(-c2ccccc2)cc1 (stereo not drawn) [Example 681] | < 500
33 | COc1cccc(S(=O)(=O)c2ccc3c(c2)OC2CNCCC32)c1F (stereo not drawn) [Example 404] | < 500
34 | O=S(=O)(c1ccc2c3c(oc2c1)CNCC3)c1cccc2ccccc12 [Example 202] | < 500
35 | Cc1ccncc1S(=O)(=O)c1ccc2c3c(oc2c1)C(C)(C)NCC3 [Example 379] | < 500
36 | CC(=O)N1CCC2c3cc(NS(=O)(=O)c4ccc5ccccc5c4)ccc3OC2C1 (stereo not drawn) [Example 814, N-(2-Acetyl-1,2,3,4,4a,9a-hexahydro[1]benzofuro[2,3-c]pyridin-6-yl)naphthalene-2-sulfonamide] | > 1000
37 | O=S(=O)(c1ccc2c(c1)OC1CNCCC21)c1cccnc1F (stereo not drawn) [Example 382] | < 500
38 | Cc1ccc(S(=O)(=O)c2ccc3c4c(oc3c2)CNCC4)cc1 [Example 204] | < 500

Row | SMILES | Ki [nM]
39 | CCOCC1NCCc2c1oc1cc(S(=O)(=O)c3cccc(F)c3)ccc21 (racemic) [Example 33, 1-(ethoxymethyl)-7-[(3-fluorophenyl)sulfonyl]-1,2,3,4-tetrahydro[1]benzofuro[2,3-c]pyridine] | < 500
40 | O=S(=O)(Nc1ccc2c(c1)C1CCNCC1O2)c1cccc2ccccc12 (stereo not drawn) [Example 825] | < 500
41 | O=S(=O)(c1cccc(F)c1)c1ccc2oc3c(c2c1)CCNC3CC(F)(F)F (stereo not drawn) [Example 518] | > 1000
42 | CN(C)C(=O)c1c(F)cccc1S(=O)(=O)c1ccc2c(c1)OC1CNCCC21 (stereo not drawn) [Example 476] | > 1000
43 | O=S(=O)(c1cccc(Cl)c1)c1ccc2c3c(oc2c1)C(CCC(F)(F)F)NCC3 (stereo not drawn) [Example 522] | < 500
44 | COc1cc(F)cc(S(=O)(=O)c2ccc3c(c2)OC2CNCCC32)c1 (stereo not drawn) [Example 420] | < 500
45 | O=S(=O)(c1ccc2c(c1)OC1CNCCC21)c1ccccc1F (stereo not drawn) [Example 146] | < 500
46 | O=S1(=O)CCC2(CC1)NCCc1c2oc2cc(S(=O)(=O)c3cccc(F)c3)ccc12 [Example 38, 7-[(3-fluorophenyl)sulfonyl]-2′,3,3′,4,5′,6′-hexahydro-2H-spiro[1-benzofuro[2,3-c]pyridine-1,4′-thiopyran] 1′,1′-dioxide] | < 500
47 | CC1(C(F)(F)F)NCCc2c1oc1cc(S(=O)(=O)c3cccc(F)c3)ccc21 (racemic) [Example 37, 7-[(3-fluorophenyl)sulfonyl]-1-methyl-1-(trifluoromethyl)-1,2,3,4-tetrahydro[1]benzofuro[2,3-c]pyridine] | < 500
48 | O=S(=O)(Oc1ccc2c(c1)OC1CNCCC21)c1ccc(F)cc1 (stereo not drawn) [Example 644] | < 500
49 | O=S(=O)(Oc1ccc2c(c1)C1CCNCC1O2)c1cccc2nsnc12 (stereo not drawn) [Example 730] | > 1000
50 | COC(=O)c1cccc(S(=O)(=O)c2ccc3c(c2)OC2CNCCC32)c1 (stereo not drawn) [Example 138] | > 1000
51 | CCOc1cccc(S(=O)(=O)c2ccc3c(c2)OC2CNCCC32C)c1 (racemic) [Example 10, 7-[(3-ethoxyphenyl)sulfonyl]-4a-methyl-1,2,3,4,4a,9a-hexahydro[1]benzofuro[2,3-c]pyridine] | < 500
52 | O=S(=O)(Cc1ccccc1)Nc1ccc2c(c1)C1CCNCC1O2 (stereo not drawn) [Example 831] | > 1000
53 | O=S(=O)(c1ccccc1)c1ccc2c3c(oc2c1)CN(CCc1ccccc1)CC3 [Example 596] | < 500
54 | CC12CCN(C3CCCCC3)CC1Oc1ccc(OS(=O)(=O)Cc3ccccc3)cc12 (stereo not drawn) [Example 807] | > 1000
55 | COc1c(F)cc(F)cc1S(=O)(=O)c1ccc2c(c1)OC1CNCCC21C (stereo not drawn) [Example 486] | < 500
56 | O=S(=O)(c1ccc2c(c1)OC1CNCCC21)c1ccccn1 (stereo not drawn) [Example 331] | 500 to 1000
57 | O=S(=O)(c1ccc2c(c1)OC1CNCCC21)c1cccc(F)c1F (stereo not drawn) [Example 411] | < 500
